Laboratory results as given in the NIST ThermoML archive (doi:10.1016/j.jct.2006.05.008).
Where “and” joins values, the source holds several entries; their conditions need not be identical. Equal entries are not always repeated.

Assay: molar heat capacity at constant pressure
Details: 101.33 kPa

CCC[n+]1ccn(C)c1.[Br-] [1-methyl-3-propylimidazolium bromide]
Details | molar heat capacity at constant pressure
146.32 K, Glass, Small (less than 1 g) adiabatic calorimetry | 140.69 J/K/mol
146.55 K, Crystal, Vacuum adiabatic calorimetry | 133.11 J/K/mol
146.9 K, Crystal, Vacuum adiabatic calorimetry | 133.3 J/K/mol
147.92 K, Crystal, Vacuum adiabatic calorimetry | 133.83 J/K/mol
148.32 K, Metastable crystal, Small (less than 1 g) adiabatic calorimetry | 137.4 J/K/mol
148.96 K, Crystal, Vacuum adiabatic calorimetry | 134.32 J/K/mol
149.12 K, Glass, Small (less than 1 g) adiabatic calorimetry | 142.33 J/K/mol
149.3 K, Crystal, Vacuum adiabatic calorimetry | 134.52 J/K/mol
150.68 K, Crystal, Vacuum adiabatic calorimetry | 135.21 J/K/mol
150.83 K, Metastable crystal, Small (less than 1 g) adiabatic calorimetry | 138.65 J/K/mol
151.02 K, Crystal, Vacuum adiabatic calorimetry | 135.37 J/K/mol
151.92 K, Glass, Small (less than 1 g) adiabatic calorimetry | 143.94 J/K/mol
152.06 K, Crystal, Vacuum adiabatic calorimetry | 135.89 J/K/mol
153.09 K, Crystal, Vacuum adiabatic calorimetry | 136.42 J/K/mol
153.33 K, Metastable crystal, Small (less than 1 g) adiabatic calorimetry | 139.92 J/K/mol
153.43 K, Crystal, Vacuum adiabatic calorimetry | 136.63 J/K/mol
153.5 K, Glass, Small (less than 1 g) adiabatic calorimetry | 144.83 J/K/mol
154.73 K, Glass, Small (less than 1 g) adiabatic calorimetry | 145.57 J/K/mol
154.81 K, Crystal, Vacuum adiabatic calorimetry | 137.37 J/K/mol
155.15 K, Crystal, Vacuum adiabatic calorimetry | 137.48 J/K/mol
155.84 K, Metastable crystal, Small (less than 1 g) adiabatic calorimetry | 141.25 J/K/mol
155.92 K, Glass, Small (less than 1 g) adiabatic calorimetry | 146.2 J/K/mol
156.19 K, Crystal, Vacuum adiabatic calorimetry | 138.07 J/K/mol
157.22 K, Crystal, Vacuum adiabatic calorimetry | 138.55 J/K/mol
157.53 K, Glass, Small (less than 1 g) adiabatic calorimetry | 147.21 J/K/mol
157.57 K, Crystal, Vacuum adiabatic calorimetry | 138.81 J/K/mol
158.35 K, Metastable crystal, Small (less than 1 g) adiabatic calorimetry | 142.5 J/K/mol
158.39 K, Glass, Small (less than 1 g) adiabatic calorimetry | 147.68 J/K/mol
158.74 K, Metastable crystal, Small (less than 1 g) adiabatic calorimetry | 142.49 J/K/mol
158.95 K, Crystal, Vacuum adiabatic calorimetry | 139.5 J/K/mol
159.29 K, Crystal, Vacuum adiabatic calorimetry | 139.64 J/K/mol
160.32 K, Crystal, Vacuum adiabatic calorimetry | 140.24 J/K/mol
160.34 K, Glass, Small (less than 1 g) adiabatic calorimetry | 148.83 J/K/mol
160.85 K, Glass, Small (less than 1 g) adiabatic calorimetry | 149.02 J/K/mol
160.86 K, Metastable crystal, Small (less than 1 g) adiabatic calorimetry | 143.76 J/K/mol
161.31 K, Metastable crystal, Small (less than 1 g) adiabatic calorimetry | 143.83 J/K/mol
161.35 K, Crystal, Vacuum adiabatic calorimetry | 140.75 J/K/mol
161.7 K, Crystal, Vacuum adiabatic calorimetry | 141.04 J/K/mol
163.07 K, Crystal, Vacuum adiabatic calorimetry | 141.95 J/K/mol
163.14 K, Glass, Small (less than 1 g) adiabatic calorimetry | 150.42 J/K/mol
163.31 K, Glass, Small (less than 1 g) adiabatic calorimetry | 150.41 J/K/mol
163.36 K, Metastable crystal, Small (less than 1 g) adiabatic calorimetry | 145.06 J/K/mol
163.42 K, Crystal, Vacuum adiabatic calorimetry | 142.16 J/K/mol
163.82 K, Metastable crystal, Small (less than 1 g) adiabatic calorimetry | 145.08 J/K/mol
164.45 K, Crystal, Vacuum adiabatic calorimetry | 143.11 J/K/mol
165.48 K, Crystal, Vacuum adiabatic calorimetry | 144.27 J/K/mol
165.77 K, Glass, Small (less than 1 g) adiabatic calorimetry | 151.85 J/K/mol
165.82 K, Crystal, Vacuum adiabatic calorimetry | 145.11 J/K/mol
165.87 K, Metastable crystal, Small (less than 1 g) adiabatic calorimetry | 146.32 J/K/mol
165.96 K, Glass, Small (less than 1 g) adiabatic calorimetry | 152.04 J/K/mol
166.33 K, Metastable crystal, Small (less than 1 g) adiabatic calorimetry | 146.42 J/K/mol
167.19 K, Crystal, Vacuum adiabatic calorimetry | 146.62 J/K/mol
167.53 K, Crystal, Vacuum adiabatic calorimetry | 147.09 J/K/mol
168.23 K, Glass, Small (less than 1 g) adiabatic calorimetry | 153.27 J/K/mol
168.38 K, Metastable crystal, Small (less than 1 g) adiabatic calorimetry | 147.66 J/K/mol
168.56 K, Crystal, Vacuum adiabatic calorimetry | 147.58 J/K/mol
168.77 K, Glass, Small (less than 1 g) adiabatic calorimetry | 153.64 J/K/mol
168.85 K, Metastable crystal, Small (less than 1 g) adiabatic calorimetry | 147.67 J/K/mol
169.59 K, Crystal, Vacuum adiabatic calorimetry | 148.31 J/K/mol
169.93 K, Crystal, Vacuum adiabatic calorimetry | 148.36 J/K/mol
170.69 K, Glass, Small (less than 1 g) adiabatic calorimetry | 154.76 J/K/mol
170.88 K, Metastable crystal, Small (less than 1 g) adiabatic calorimetry | 149.09 J/K/mol
171.3 K, Crystal, Vacuum adiabatic calorimetry | 149.09 J/K/mol
171.36 K, Metastable crystal, Small (less than 1 g) adiabatic calorimetry | 149.04 J/K/mol
171.57 K, Glass, Small (less than 1 g) adiabatic calorimetry | 155.3 J/K/mol
171.66 K, Crystal, Vacuum adiabatic calorimetry | 149.38 J/K/mol
172.67 K, Crystal, Vacuum adiabatic calorimetry | 149.83 J/K/mol
173.15 K, Glass, Small (less than 1 g) adiabatic calorimetry | 156.22 J/K/mol
173.73 K, Crystal, Vacuum adiabatic calorimetry | 150.42 J/K/mol
173.86 K, Metastable crystal, Small (less than 1 g) adiabatic calorimetry | 151.16 J/K/mol
174.05 K, Crystal, Vacuum adiabatic calorimetry | 150.49 J/K/mol
174.37 K, Glass, Small (less than 1 g) adiabatic calorimetry | 156.97 J/K/mol
175.42 K, Crystal, Vacuum adiabatic calorimetry | 151.1 J/K/mol
175.61 K, Glass, Small (less than 1 g) adiabatic calorimetry | 157.68 J/K/mol
175.8 K, Crystal, Vacuum adiabatic calorimetry | 151.34 J/K/mol
176.31 K, Metastable crystal, Small (less than 1 g) adiabatic calorimetry | 156.29 J/K/mol
176.79 K, Crystal, Vacuum adiabatic calorimetry | 151.84 J/K/mol
177.16 K, Glass, Small (less than 1 g) adiabatic calorimetry | 158.66 J/K/mol
177.87 K, Crystal, Vacuum adiabatic calorimetry | 152.35 J/K/mol
178.06 K, Glass, Small (less than 1 g) adiabatic calorimetry | 159.2 J/K/mol
178.16 K, Crystal, Vacuum adiabatic calorimetry | 152.6 J/K/mol
178.77 K, Metastable crystal, Small (less than 1 g) adiabatic calorimetry | 157.34 J/K/mol
179.54 K, Crystal, Vacuum adiabatic calorimetry | 153.2 J/K/mol
179.94 K, Crystal, Vacuum adiabatic calorimetry | 153.35 J/K/mol
179.96 K, Glass, Small (less than 1 g) adiabatic calorimetry | 160.43 J/K/mol
180.51 K, Glass, Small (less than 1 g) adiabatic calorimetry | 160.72 J/K/mol
180.91 K, Crystal, Vacuum adiabatic calorimetry | 153.97 J/K/mol
181.24 K, Metastable crystal, Small (less than 1 g) adiabatic calorimetry | 158.54 J/K/mol
182.01 K, Crystal, Vacuum adiabatic calorimetry | 154.36 J/K/mol
182.28 K, Crystal, Vacuum adiabatic calorimetry | 154.57 J/K/mol
182.76 K, Glass, Small (less than 1 g) adiabatic calorimetry | 162.21 J/K/mol
182.96 K, Glass, Small (less than 1 g) adiabatic calorimetry | 162.2 J/K/mol
183.71 K, Metastable crystal, Small (less than 1 g) adiabatic calorimetry | 159.86 J/K/mol
184.08 K, Crystal, Vacuum adiabatic calorimetry | 155.44 J/K/mol
184.32 K, Crystal, Vacuum adiabatic calorimetry | 155.34 J/K/mol
185.31 K, Crystal, Vacuum adiabatic calorimetry | 156.02 J/K/mol
185.4 K, Glass, Small (less than 1 g) adiabatic calorimetry | 163.81 J/K/mol
185.55 K, Glass, Small (less than 1 g) adiabatic calorimetry | 163.97 J/K/mol
186.15 K, Crystal, Vacuum adiabatic calorimetry | 156.46 J/K/mol
186.18 K, Metastable crystal, Small (less than 1 g) adiabatic calorimetry | 161.18 J/K/mol
186.86 K, Crystal, Vacuum adiabatic calorimetry | 156.54 J/K/mol
187 K, Crystal, Vacuum adiabatic calorimetry | 156.84 J/K/mol
187.85 K, Glass, Small (less than 1 g) adiabatic calorimetry | 165.5 J/K/mol
188.22 K, Crystal, Vacuum adiabatic calorimetry | 157.39 J/K/mol
188.33 K, Glass, Small (less than 1 g) adiabatic calorimetry | 165.89 J/K/mol
188.37 K, Crystal, Vacuum adiabatic calorimetry | 157.44 J/K/mol
188.65 K, Metastable crystal, Small (less than 1 g) adiabatic calorimetry | 162.48 J/K/mol
189.74 K, Crystal, Vacuum adiabatic calorimetry | 158.15 J/K/mol and 158.27 J/K/mol
190.29 K, Crystal, Vacuum adiabatic calorimetry | 158.43 J/K/mol
190.29 K, Glass, Small (less than 1 g) adiabatic calorimetry | 167.25 J/K/mol
190.58 K, Crystal, Vacuum adiabatic calorimetry | 158.53 J/K/mol
191.11 K, Crystal, Vacuum adiabatic calorimetry | 158.93 J/K/mol
191.12 K, Glass, Small (less than 1 g) adiabatic calorimetry | 167.98 J/K/mol
191.12 K, Metastable crystal, Small (less than 1 g) adiabatic calorimetry | 163.72 J/K/mol
192.28 K, Crystal, Vacuum adiabatic calorimetry | 159.62 J/K/mol
192.36 K, Crystal, Vacuum adiabatic calorimetry | 159.59 J/K/mol
192.48 K, Crystal, Vacuum adiabatic calorimetry | 159.63 J/K/mol
192.74 K, Glass, Small (less than 1 g) adiabatic calorimetry | 168.95 J/K/mol
193.11 K, Crystal, Vacuum adiabatic calorimetry | 160.08 J/K/mol
193.58 K, Metastable crystal, Small (less than 1 g) adiabatic calorimetry | 165.05 J/K/mol
193.85 K, Crystal, Vacuum adiabatic calorimetry | 160.55 J/K/mol
193.9 K, Glass, Small (less than 1 g) adiabatic calorimetry | 169.91 J/K/mol
194.35 K, Crystal, Vacuum adiabatic calorimetry | 160.92 J/K/mol
195.18 K, Crystal, Vacuum adiabatic calorimetry | 161.48 J/K/mol
195.19 K, Glass, Small (less than 1 g) adiabatic calorimetry | 171.15 J/K/mol
195.22 K, Crystal, Vacuum adiabatic calorimetry | 161.53 J/K/mol
196.05 K, Metastable crystal, Small (less than 1 g) adiabatic calorimetry | 166.26 J/K/mol
196.59 K, Crystal, Vacuum adiabatic calorimetry | 162.52 J/K/mol
196.68 K, Glass, Small (less than 1 g) adiabatic calorimetry | 172.49 J/K/mol
197.24 K, Crystal, Vacuum adiabatic calorimetry | 163.14 J/K/mol
197.62 K, Glass, Small (less than 1 g) adiabatic calorimetry | 173.39 J/K/mol
197.95 K, Crystal, Vacuum adiabatic calorimetry | 163.6 J/K/mol
198.51 K, Crystal, Vacuum adiabatic calorimetry | 164.2 J/K/mol
198.51 K, Metastable crystal, Small (less than 1 g) adiabatic calorimetry | 167.53 J/K/mol
199.3 K, Crystal, Vacuum adiabatic calorimetry | 164.84 J/K/mol
